Assay results: patent publication US5189021A, “Method of treating precocious puberty” (Roussel Uclaf, priority 1979, dated 1993)

Tests used:
[1] = test system: testicular steriodogenosis; assay: Inhibitory activity on testicular steroidogenesis in a patient with prostate cancer; assay type: in vivo, human; conditions: 500 μg intranasally twice a day
From the text: The inhibitory activity of [D Ser (tbu)^6 of des GlyNH2^10 ] […] The results are reported in the graphs of sheet 2 of the Figures.

[2] = test system: testicular steroidogensis; assay: Inhibitory activity against testicular steroidogenesis in men in good health, single intranasal dose; assay type: in vivo
Method: The inhibitory activity of [D Ser (tbu)^6 of des GlyNH^10 ] LH-RH ethylamide (described in German application Ser. No. 2,438,350) against testicular steroidogensis in men in good health was determined on men in good health aged 30 to 40 years. The said product was administered intranasally at a dose of 500 μg in a few drops of distilled water at 8 A.M. on the third day of the test. For 2 days prior to the treatment and for 6 days after the treatment, samples of blood were taken daily at 8 A.M., 3 P.M. and 10 P.M. On the day of administration of the LH-RH agonist, blood samples were taken at 11 A.M. and 6 P.M.
The seric concentrations of LH and FSH were measured by radioimmuno-logic dosages with double antibodies and the antibodies for measuring LH and FSH were furnished by the National Pituitary Agency of N.I.H. in Bethesda, Md. The seric concentrations of steroids was measured by radio-immuno-logic dosages in which one ml of serum was extracted with ether and the steroids were separated on a LH-20 column before measuring with radioimmuno-logic dosages. The radio-immuno-logic dosage results were determined by a program derived from model II of Rodbard et al [Second Karolinska Symposium on Research Methods in Reproductive Endroerinology Diczfalusky Editor, Copenhague (1970), p. 79-103]. The statistical significance was determined by the "multiple level test" of Duncan-Kramer [Kramer, Biometrics, Vol 12 (1956), p. 307]. The results are shown in the graphs on sheet 1 of the Figures filed herewith.

ovarian steroidogenosis = assay: Inhibitory activity on ovarian steroidogenesis in women; assay type: in vivo; conditions: for reduction of seric levels of progesterone compared to the controls: typical levels (sheet 3)
Method: The inhibitory activity of [D Ser (tbu)^6 of des GlyNH2^10 ] LH-RH ethylamide on ovarian steroidogenosis in women was determined on 6 women aged 26 to 35 years with normal and regular menstrual cycles and without prior endocrinal or gynecological problems. The study was conducted for 6 consecutive cycles consisting of 2 pretreatment cycles, 2 treatment cycles and 2 post-treatment cycles. Two drops of a solution containing 500 μg of [D Ser (tbu)^6 des GlyNH2^10 ] LH-RH ethylamide were deposited on each nostril at 8 A.M. and 5 P.M. of a day between the 4th and 9th day after the peak of LH-day 0. Daily blood samples were taken between 4 and 6 P.M. to measure seric levels of LH, FSH, progesterone and estradiol which were determined by radioimmumo-logictests with double antibodies. The antibodies to measure LH and FSH were furnished by the National Pituitory Agency of N.I.H. of Bethesda, Md.
Estradiol and progesterone were measured with highly specific antibodies developed against 7-(O-carboxymethyl)-oxime of estradiol and 12-(O-carboxymethyl)-oxime of progesterone, respectively [3H] 17β-estradiol and ^125 I-progesterone-12-[O-carboxymethyl)-oxime]used as tracers. The serum was extracted with benzene and the steroids were separated with a LH-20 column before the determination. The radioimmunological results were exploited by the program derived from model II of Rodbard and Lewald as in Example 1 and the statistical significance was measured by the multiple level test of Ducan-Kramer of Example 1. The results are shown in the graphs of sheets 3 to 5 of the Figures.

[3] = 3rd day following administration, intranasal 500 μg
[4] = after single intranasal dose of 500 μg

CCNC(=O)[C@@H]1CCCN1C(=O)[C@H](CCCNC(=N)N)NC(=O)[C@H](CC(C)C)NC(=O)[C@@H](COC(C)(C)C)NC(=O)[C@H](Cc1ccc(O)cc1)NC(=O)[C@H](CO)NC(=O)[C@H](Cc1c[nH]c2ccccc12)NC(=O)[C@H](Cc1c[nH]cn1)NC(=O)[C@@H]1CCC(=O)N1 [[D Ser (tbu)^6 des GlyNH2^10] LH-RH ethylamide]
androgenic steroids (plasmatic level) ([1]; prostate cancer patient): diminution
level of testosterone ([1]; two weeks of treatment): stabilized at a very low level
concentration of 17-OH-progesterone relative to the initial control values [2, 3]: 40%
concentration of testosterone relative to the initial control values [2, 3]: 50%
day on which the steroid level returned to normal [2, 4]: fourth day
duration of the drop of seric levels of testicular steroids (testosterone and its precursors) [2, 4]: 3 days
LH and FSH plasmatic levels ([2]; intranasal 500 μg): increase
seric concentration of pregnenolone, 17-OH-pregnenolone, progesterone, 17-OH-progesterone, Δ5-androstene-3β,17β-diol and testosterone ([2]; on the day of treatment, intranasal 500 μg): increased
diminution of the level of testosterone ([2]; single intranasal dose of 500 μg, human, 3rd day following administration): 50%
level of progesterone reduced as compared to the controls (ovarian steroidogenosis; 12 cycles, sheet 5, scale 13 to 127%): 46%
level of progesterone as % of control values (pretreatment cycles = 100%) (ovarian steroidogenosis; cycles of post-treatment, 12 cycles): 99%
level of progesterone as % of control values (pretreatment cycles = 100%) (ovarian steroidogenosis; cycles of treatment, 12 cycles): 46%
reduction of seric levels of progesterone compared to the controls (ovarian steroidogenosis; first cycle of treatment): 13%
reduction of seric levels of progesterone compared to the controls (ovarian steroidogenosis; second cycle of treatment): 34%
level of seric progesterone in the 2 cycles of treatment (ovarian steroidogenosis; sheet 4): accelerated diminution
